Results from patent publication US11963962B2, “Platelet count-agnostic methods of treating myelofibrosis” (Sierra Oncology, Inc., priority 2018, dated 2024).
Like-named read-outs stand apart in the source and are kept apart here. Marks after values point to notes of the source that are not given here.

What was measured:
myelofibrosis [1] = assay: SIMPLIFY-1 Phase 3 trial: transfusion independence and TD to TI conversion; type: in vivo, human; conditions: SIMPLIFY 1
From the text: The improved outcome from MMB therapy that results from practicing the subject methods can be manifested as an improvement in one or more clinical endpoints (e.g., as described herein), such as anemia response, in spleen response and/or symptom response. By “anemia response” is meant an increase in the patient's hemoglobin level or a patient who was transfusion dependent becoming transfusion independent. Desirably, a minimum increase in hemoglobin of 0.5 g/dL, such as 1.0 g/dL 1.5 g/dL or 2.0 g/dL lasting a minimum of 8 weeks is achieved, which is the level of improvement specified in the International Working Group (IWG) consensus criteria. However, smaller, but still medically significant, increases in hemoglobin are also considered to be within the term “anemia response”. “Transfusion independence” is an anemia endpoint and refers to a subject who required no RBC transfusions over a 12 week period and had no hemoglobin levels less than 8 g/dL to 8.5 g/dL over the 12 week period. In some embodiments, the 12 week period of transfusion independence is the terminal 12 weeks of a 24 week study period. By red blood cell (RBC) transfusion independence rate at week 24 of a study is meant the proportion of subjects who were transfusion independent at week 24, excluding cases associated with clinically overt bleeding.
(§1) In the SIMPLIFY-1 trial (NCT01969838), the efficacy and safety of MMB versus ruxolitinib (RUX) was studied in patients with myelofibrosis who were naïve to treatment with a JAK inhibitor and a platelet count of ≥50×10^9/L. Patients (N=432) with high risk or intermediate-2 risk or symptomatic intermediate-1 risk myelofibrosis received 24 weeks of treatment with 200 mg MMB once daily or 20 mg RUX twice a day (or per label), after which all patients could receive open-label momelotinib. […] The primary endpoint was a reduction by at least 35% in the spleen volume at 24 weeks compared with baseline.
(§2) FIG. 8A: SIMPLIFY-1 study of MMB in a first line population previously untreated with JAKi. For SIMPLIFY-1, the goal was non-inferiority over ruxolitinib (RUX) (MMB: N=215 subjects, and RUX: N=217 subjects). FIG. 8B: SIMPLIFY-2 study of second line population of anemic or thrombocytopenic subjects previously treated with RUX (red blood cell (RBC) transfusions on RUX=64%. RUX dose adjustment for: thrombocytopenia=21%; anemia/hematoma=35%). For SIMPLIFY-2, the goal was superiority over best available treatment (BAT) (MMB: N=104 subjects, and BAT: N=52 subjects). In both SIMPLIFY-1 and SIMPLIFY: Primary endpoint: >=35% reduction in spleen volume at 24 weeks. Secondary endpoints: Total symptom score (TSS) response at 24 weeks. Effects on RBC transfusion requirements.
(§3) The SIMPLIFY 1 clinical trial data was reanalyzed for subgroups of subjects having particular baseline platelet counts in the MMB versus RUX arms of the study.
(§4) Patient data was analyzed according to the following baseline platelet count (PLT) subgroups and in particular according to the threshold PLT of 150×10^9/L: 1) PLT<50×10^9/L; 2) 50×10^9/L≤PLT<100×10^9/L; 3) 100×10^9/L≤PLT<150×10^9/L. The reanalyzed data is presented in Table 13 (SIMPLIFY 1). Selected data is also illustrated in the following figures.

myelofibrosis [2] = conditions: cited from earlier work
myelofibrosis [3] = assay: SIMPLIFY-1 dynamic and time-to-event analyses of RBC transfusions; type: in vivo, human; conditions: SIMPLIFY-1, 24 week randomized treatment period
From the text: The SIMPLIFY-1 (S1) trial, a double-blind, active-controlled Phase 3 study in which 432 patients received randomized treatment with MMB or RUX for 24 weeks was previously reported (Mesa R A, Kiladjian J J, Catalano J V. et al. “Simplify-1: A phase III randomized trial of momelotinib versus ruxolitinib in j anus kinase inhibitor—naïve patients with myelofibrosis”, Journal of Clinical Oncology, 2017; 35:3844-50).
Since transfusion burden is of significant concern to clinicians and patients, to better understand the dynamics of RBC transfusions we further examined the S1 data through statistical models utilizing a variety of novel anemia benefit endpoints including time until transfusion and overall intensity of transfusions across time. The proportions of patients with 0 and 4 transfusions were calculated and time-to-event analyses examining time-to-first and time-to-fifth units transfused also conducted. Since transfusions typically comprise 2 units, the fifth unit transfused represents a de facto third transfusion event. The number of units transfused were also considered to be recurrent events and examined with and without patients' baseline characteristics as covariates. Finally, a mixture model, based on a zero-inflated negative binomial (ZINB) distribution fit to the transfusion data, was employed to compare between the treatment groups the proportions of subjects with zero transfusion burden and the mean transfusion rates.

myelofibrosis [4] = assay: SIMPLIFY-1 Phase 3 trial: splenic response rate (SRR); type: in vivo, human; conditions: SIMPLIFY 1, week 24
Experimental: as §1, §2, §3, §4

myelofibrosis [5] = assay: SIMPLIFY-1 Phase 3 trial: safety (anemia, platelet counts, hemoglobin); type: in vivo, human
Experimental: as §1
The mean platelet count for RUX patients is demonstrably lower than the mean platelet count for MMB patients.
The MMB subjects were thus at lower risk of developing thrombocytopenia (e.g., Grade 3 or 4 thrombocytopenia), or of having to undergo undesirable dose reduction because they were able to largely maintain their platelet counts during therapy.

myelofibrosis [6] = assay: SIMPLIFY-1 Phase 3 trial: total symptom score (TSS) response at week 24; type: in vivo, human; conditions: for TSS response rate: SIMPLIFY 1, week 24
Experimental: as §1, §2, §3, §4

[7] = ITT, platelets 50-100 (subgroup 2)
[8] = ITT, platelets 100-150 (subgroup 3)
[9] = baseline TSS ≥ 6, platelets 50-100 (subgroup 2)
[10] = baseline TSS ≥ 6, platelets 100-150 (subgroup 3)
[11] = baseline TSS ≥ 10, all patients
[12] = baseline TSS ≥ 10, platelets 50-100 (subgroup 2)
[13] = baseline TSS ≥ 10, platelets 100-150 (subgroup 3)

N#CC[C@H](C1CCCC1)n1cc(-c2ncnc3[nH]ccc23)cn1 [RUX, ruxolitinib, reference compound]
patients with transfusion independence promoted and maintained (TI rate) (myelofibrosis [1]): 49% | Week 24 TI rate (myelofibrosis [1]; ITT, all patients): 49% | Week 24 TI rate (myelofibrosis [1]; [7]): 39% | Week 24 TI rate (myelofibrosis [1]; [8]): 45%* | Week 24 TI rate (myelofibrosis [1]; baseline TSS ≥ 6, all patients): 48% | Week 24 TI rate (myelofibrosis [1]; [9]): 36% | Week 24 TI rate (myelofibrosis [1]; [10]): 41% | Week 24 TI rate (myelofibrosis [1]; [11]): 51% | Week 24 TI rate (myelofibrosis [1]; [12]): 32% | Week 24 TI rate (myelofibrosis [1]; [13]): 45%* | median time to recovery of platelet counts above 50×10^9/L (myelofibrosis [2]; after dose reduction or dose interruption): 14 days | median time to onset of thrombocytopenia (myelofibrosis [2]; patients who developed Grade 3 or 4 thrombocytopenia): approximately 8 weeks | frequency of Grade 3 or 4 thrombocytopenia (myelofibrosis [2]; patients with a platelet count of 100×10^9 to 200×10^9/L before starting ruxolitinib): 17% | frequency of Grade 3 or 4 thrombocytopenia (myelofibrosis [2]; patients with an entry platelet count greater than 200×10^9/L): 7% | Kaplan-Meier estimate of the proportion of patients who did not require any units transfused (myelofibrosis [3]): 46% | proportion of patients requiring 4 or fewer units (myelofibrosis [3]): 62% | SRR (myelofibrosis [4]; ITT, all patients): 29% | SRR (myelofibrosis [4]; [7]): 0% | SRR (myelofibrosis [4]; [8]): 6% | SRR (myelofibrosis [4]; baseline TSS ≥ 6, all patients): 29% | SRR (myelofibrosis [4]; [9]): 0% | SRR (myelofibrosis [4]; [10]): 7% | SRR (myelofibrosis [4]; [11]): 29% | SRR (myelofibrosis [4]; [12]): 0% | SRR (myelofibrosis [4]; [13]): 5% | anemia rate (myelofibrosis [5]; SIMPLIFY 1): 38% | ≥Grade 3 anemia rate (myelofibrosis [5]; SIMPLIFY 1): 23% | platelet counts during treatment (myelofibrosis [5]; SIMPLIFY 1, 24 week double blind phase, FIGS. 31-33): significant reductions in platelet counts from baseline | TSS response rate (myelofibrosis [6]; ITT, all patients): 41% | TSS response rate (myelofibrosis [6]; [7]): 22% | TSS response rate (myelofibrosis [6]; [8]): 39%* | TSS response rate (myelofibrosis [6]; baseline TSS ≥ 6, all patients): 42% | TSS response rate (myelofibrosis [6]; [9]): 23% | TSS response rate (myelofibrosis [6]; [10]): 33% | TSS response rate (myelofibrosis [6]; [11]): 43% | TSS response rate (myelofibrosis [6]; [12]): 21% | TSS response rate (myelofibrosis [6]; [13]): 35% | Total Symptom Score (TSS) response (myelofibrosis [6]; SIMPLIFY-1, overall): 42.2%
